Measured values from BindingDB's records for doi:10.7270/Q2B27SRF (Broad Institute, 2010).

Target: Serine/threonine-protein kinase 33 (Homo sapiens, UniProt Q9BYT3)
Test: inhibition of STK33 phosphorylation of MBP – biochemical, luminescence, cell-free, retest, dose response (AID 2821)

Sequence of Serine/threonine-protein kinase 33 (Q9BYT3 whole entry): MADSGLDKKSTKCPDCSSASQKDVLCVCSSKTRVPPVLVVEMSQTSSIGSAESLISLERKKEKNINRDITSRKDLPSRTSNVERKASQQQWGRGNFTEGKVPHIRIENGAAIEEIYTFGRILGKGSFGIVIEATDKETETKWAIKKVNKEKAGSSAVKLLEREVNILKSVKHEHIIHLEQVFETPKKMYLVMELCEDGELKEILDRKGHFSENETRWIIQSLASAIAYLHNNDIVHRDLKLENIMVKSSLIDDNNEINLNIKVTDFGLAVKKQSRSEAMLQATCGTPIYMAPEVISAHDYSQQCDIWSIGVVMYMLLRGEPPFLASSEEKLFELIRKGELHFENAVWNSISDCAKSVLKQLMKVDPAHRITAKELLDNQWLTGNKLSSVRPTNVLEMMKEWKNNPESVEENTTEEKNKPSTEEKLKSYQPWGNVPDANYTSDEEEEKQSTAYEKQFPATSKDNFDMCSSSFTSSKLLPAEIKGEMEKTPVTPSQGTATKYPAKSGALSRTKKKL

| SMILES | EC50 [µM] |
| --- | --- |
| COc1ccc(CNc2nc3ccccc3s2)cc1OC [SMR000523783] | > 120 |
| Cc1ccc(NC(=O)COC(=O)c2cc(Cl)ccc2Cl)c(Br)c1 [SMR000259824] | > 120 |
| S=C(Nc1cccnc1)Nc1cccc2cnccc12 [SMR000348842] | > 120 |
| c1cncc(C2Nc3ccccc3-c3nc4ccccc4n32)c1 (stereo unspecified) [MLS000098034] | 27.1 |
| O=c1c(O)c(-c2cc(O)c(O)c(O)c2)oc2cc(O)cc(O)c12 | 18 |
| COc1cc(-c2cc(=O)c3c(O)c(OC)c(OC)c(O)c3o2)ccc1O [5,8-dihydroxy-2-(4-hydroxy-3-methoxy-phenyl)-6,7-dimethoxy-chromone] | 9.68 |
| C=CC(=O)Nc1ccc(Nc2nc(NC3CCC(N(C)C)CC3)nc3c2ncn3C(C)C)cc1 (stereo unspecified) [N-[4-[[2-[[4-(dimethylamino)cyclohexyl]amino]-9-propan-2-yl-purin-6-yl]amino]phenyl]prop-2-enamide] | 0.883 |
| O=C(CCc1ccc(O)cc1)c1c(O)cc(O)cc1O [3-(4-hydroxyphenyl)-1-(2,4,6-trihydroxyphenyl)propan-1-one] | 21.4 |
| O=C(O)c1ccc(N=Cc2c(O)ccc3oc4c(c23)CCCC4)cc1 [4-{[1-(2-Hydroxy-6,7,8,9-tetrahydro-dibenzofuran-1-yl)-meth-(E)-ylidene]-amino}-benzoic acid] | 6.2 |
| O=C1c2c(O)ccc(O)c2C(=O)c2c(NCCNCCO)ccc(NCCNCCO)c21 [SMR000058480] | 5.88 |
| Cc1ccc(NC(=S)Nc2ccc3cn[nH]c3c2)c(C)c1 | > 120 |
| COc1cc(C=C2SC(Nc3ccccc3OC)=NC2=O)ccc1O [5-(4-Hydroxy-3-methoxy-benzylidene)-2-(2-methoxy-phenylimino)-thiazolidin-4-one] | 4 |
| N#CC(C(=O)c1ccco1)c1nc2ccccc2[nH]1 (stereo unspecified) [SMR000305206] | 8.49 |
| CC(Oc1ccc2c(c1)c1ccnc3c4ccccc4c(=O)n2c13)C(=O)NCCN1CCOCC1 (stereo unspecified) [SMR000652046] | 0.416 |
| O=C(O)c1cccc(Nc2nc(-c3cccnc3)nc3ccccc23)c1 [SMR000172180] | 32.5 |
| CCOc1ccc(-c2cc(CCCC(=O)NCCCOC)no2)cc1 [4-[5-(4-ethoxyphenyl)-1,2-oxazol-3-yl]-N-(3-methoxypropyl)butanamide] | > 120 |
| CCOc1ccc(-c2ccc(SC)nn2)cc1 [3-(4-ethoxyphenyl)-6-(methylthio)pyridazine] | > 120 |
| Cc1c(C(=O)OCC(=O)N2c3ccccc3CC2C)oc2ccccc12 (stereo unspecified) [3-methyl-2-benzofurancarboxylic acid [2-(2-methyl-2,3-dihydroindol-1-yl)-2-oxoethyl] ester] | > 120 |
| COC(=O)Nc1nnc(Cc2ccccc2)s1 [N-[5-(phenylmethyl)-1,3,4-thiadiazol-2-yl]carbamic acid methyl ester] | > 120 |
| O=C(Nc1ccccc1-c1nc2ccccc2[nH]c1=O)c1cccs1 [N-[2-(3-oxo-4H-quinoxalin-2-yl)phenyl]-2-thiophenecarboxamide] | 2.1 |
| O=C(NCCCO)c1cc2c([nH]c3ccccc32)c(-c2ccccc2)n1 [MLS001214182] | 23.4 |
| O=C1/C(=C/c2ccc(O)c(O)c2)Oc2cc(O)ccc21 [MLS000863576] | 9.63 |
| COc1ccc(-c2onc3ccc(C(=O)/C=C/N(C)C)cc23)cc1 [(E)-3-(dimethylamino)-1-[3-(4-methoxyphenyl)-2,1-benzoxazol-5-yl]-2-propen-1-one] | 5.29 |
| O=C1N=c2ccccc2=C1NNc1ccc(C(=O)O)cc1 [4-[2-(2-oxidanylideneindol-3-yl)hydrazinyl]benzoic acid] | 36.8 |
| CCC(C(=O)Nc1ccc2[nH]ncc2c1)c1ccccc1 (stereo unspecified) [MLS001001015] | 9.54 |
| CN(C)c1cc2c(c(N(C)C)c1)C(=O)c1ccccc1C2=O [1,3-bis(dimethylamino)-9,10-anthraquinone] | 23.8 |

| SMILES | EC50 [µM] |
| --- | --- |
| O=C1c2ccccc2C(=O)C1c1ccncc1 [2-(1H-pyridin-4-ylidene)indane-1,3-quinone] | 10.3 |
| O=C(O)Cc1ccc(N=Cc2c(O)ccc3ccccc23)cc1 [(4-{[(2-hydroxy-1-naphthyl)methylene]amino}phenyl)acetic acid] | 10.7 |
| COc1cc(N=CC2C(=O)Nc3ccccc32)cc(OC)c1OC (stereo unspecified) | 4.93 |
| CNC(=O)c1cnc2ccc(S(=O)(=O)Nc3ccccc3F)cc2c1O | > 120 |
| CCn1cc(/C=C/C(=O)c2ccc(O)cc2)c(C)n1 [(E)-3-(1-ethyl-3-methyl-4-pyrazolyl)-1-(4-hydroxyphenyl)-2-propen-1-one] | 9.79 |
| Cc1ccc(C(=O)O/N=C(\N)c2ccccn2)c(Cl)c1 [MLS001206211] | 32.2 |
| CCN(CC)c1ccc(Nc2nc(N3CCOCC3)c3ccccc3n2)cc1 [4-N,4-N-diethyl-1-N-(4-morpholin-4-ylquinazolin-2-yl)benzene-1,4-diamine] | > 120 |
| Oc1ccc(Nc2nc(-c3ccccc3O)nc3ccccc23)cc1 | 2.43 |
| O=C1NC(=O)/C(=C\c2ccc(O)cc2O)S1 [SMR000274064] | 8.73 |
| Nc1nc(N)nc(-c2cc(O)ccc2O)n1 [(6E)-6-(4,6-diamino-1H-1,3,5-triazin-2-ylidene)-4-hydroxycyclohexa-2,4-dien-1-one] | 7.05 |
| Cc1nc[nH]c1C(=O)NN=Cc1c(Cl)cccc1Cl [MLS001182271] | > 120 |
| CCCn1c2ccc(C(C)N=O)cc2c2cc(C(C)N=O)ccc21 (stereo unspecified) [1-[6-(1-hydroxyiminoethyl)-9-propyl-3-carbazolyl]ethanone oxime] | 2.48 |
| O=S(=O)(O)c1cccc(N=Nc2c(O)ccc3ccccc23)c1 [SMR000273743] | 3.46 |
| COc1ccc(-c2oc3ncnc(NCCCN(C)C)c3c2-c2ccc(OC)cc2)cc1 [N-[5,6-bis(4-methoxyphenyl)furo[2,3-d]pyrimidin-4-yl]-N',N'-dimethyl-propane-1,3-diamine] | 33.6 |
| CCOc1cc(/C=C2\SC(N3CCCC(C)C3)=NC2=O)ccc1O (stereo unspecified) [(5Z)-5-[(3-ethoxy-4-hydroxyphenyl)methylidene]-2-(3-methylpiperidin-1-yl)-1,3-thiazol-4-one] | > 120 |
| S=C(Nc1cccc(Cl)c1)Nc1ccc2cn[nH]c2c1 [SMR000261299] | > 120 |
| CCN1C(=O)CC(c2ccccc2)N(C2CCCC2)c2nc(Nc3ccc(C(=O)NC4CCN(C)CC4)cc3OC)ncc21 (stereo unspecified) | 7.93 |
| Oc1ccc(CN=Nc2ccc(C(F)(F)F)cn2)cc1 [4-[[2-[5-(trifluoromethyl)pyridin-2-yl]hydrazinyl]methylidene]cyclohexa-2,5-dien-1-one] | 14.1 |
| S=C(Nc1ccccc1)Nc1ccc2c[nH]nc2c1 [MLS000516600] | 19.5 |
| CCn1c2ccc(C)cc2c2nc3cc(C(=O)O)ccc3nc21 [6-ethyl-9-methylindolo[2,3-b]quinoxaline-2-carboxylic acid] | 17.9 |
| Oc1ccc(C=Nn2c(-c3ccccc3)n[nH]c2=S)cc1 [SMR000513437] | 25.8 |
| CCSc1nc(N2CCOCC2)c2c(c1C#N)CCCC2 [3-(ethylthio)-1-(4-morpholinyl)-5,6,7,8-tetrahydroisoquinoline-4-carbonitrile] | 8.86 |
| CN(C)S(=O)(=O)c1cccc(NC(=S)Nc2ccc3cn[nH]c3c2)c1 [MLS001033726] | 38.7 |
| COc1ccc(C(=O)ON=C(C)c2cccs2)cc1 [MLS000544771] | 29.1 |
| CCCCCCCCCCC[N+](C)(C)CC/C=C1/c2ccccc2Sc2ccc(Cl)cc21 [MLS001165405] | > 120 |
